These results are taken from patent US20080119505A1, “Novel 6-Pyridylphenanthridines” (ALTANA Pharma AG, priority 2005, published 2008).

Structures are written as SMILES.

In this test the target is T1, PDE4B2 (Homo sapiens, UniProt Q07343).
T1 construct: made in house; host or cells: SF21 insect cells (baculovirus; virus made in SF9 cells)
Kind of test: Inhibition of PDE4 activity (PDE4B2 [3H]cAMP SPA enzyme assay). Type of test: biochemical. The following applies: recombinant PDE4B2 expressed in SF21 insect cells, 0.5 μM cAMP, read-out: −log IC50 (mol/l), Inhibition of the PDE4 activity (converted). As for the experimental part:
The PDE4B2 (GB no. M97515) was a gift of Prof. M. Conti (Stanford University, USA). It was amplified from the original plasmid (pCMV5) via PCR with primers Rb9 (5′-[…]-3′) and Rb10 (5′-[…]-3′) and cloned into the pCR-Bac vector (Invitrogen, Groningen, NL).
The recombinant baculovirus was prepared by means of homologous recombination in SF9 insect cells. The expression plasmid was cotransfected with Bac-N-Blue (Invitrogen, Groningen, NL) or Baculo-Gold DNA (Pharmingen, Hamburg) using a standard protocol (Pharmingen, Hamburg). Wt virus-free recombinant virus supernatant was selected using plaque assay methods. After that, high-titre virus supernatant was prepared by amplifying 3 times. PDE was expressed in SF21 cells by infecting 2×10^6 cells/ml with an MOI (multiplicity of infection) between 1 and 10 in serum-free SF900 medium (Life Technologies, Paisley, UK). […]
The SF21 insect cells were resuspended, at a concentration of approx. 10^7 cells/ml, in ice-cold (4° C.) homogenization buffer (20 mM Tris, pH 8.2, containing the following additions: 140 mM NaCl, 3.8 mM KCl, 1 mM EGTA, 1 mM MgCl2, 10 mM β-mercaptoethanol, 2 mM benzamidine, 0.4 mM Pefablock, 10 μM leupeptin, 10 μM pepstatin A, 5 μM trypsin inhibitor) and disrupted by ultrasonication. […] The protein content was determined by the Bradford method (BioRad, Munich) using BSA as the standard. […]

T1 sequence (Q07343 1-564 isoform Q07343-2): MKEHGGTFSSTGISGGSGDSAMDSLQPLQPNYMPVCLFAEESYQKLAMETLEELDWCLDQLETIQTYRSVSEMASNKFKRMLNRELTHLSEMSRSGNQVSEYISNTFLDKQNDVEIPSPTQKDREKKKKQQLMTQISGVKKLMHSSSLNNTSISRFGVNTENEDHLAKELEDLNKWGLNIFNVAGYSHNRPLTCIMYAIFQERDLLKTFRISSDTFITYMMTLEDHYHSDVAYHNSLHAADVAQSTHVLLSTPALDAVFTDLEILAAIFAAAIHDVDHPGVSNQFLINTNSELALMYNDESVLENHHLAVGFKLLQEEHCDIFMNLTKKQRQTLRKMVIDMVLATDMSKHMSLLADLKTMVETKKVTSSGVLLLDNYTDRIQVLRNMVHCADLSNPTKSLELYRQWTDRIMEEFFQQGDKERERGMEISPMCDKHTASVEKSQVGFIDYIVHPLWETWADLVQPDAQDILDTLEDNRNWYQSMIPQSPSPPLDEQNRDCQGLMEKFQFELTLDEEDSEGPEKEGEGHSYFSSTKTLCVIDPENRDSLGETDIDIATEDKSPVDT

Regarding `CCOc1cc2c(cc1OC)C(c1ccc(OC)nc1OC)=N[C@@H]1CCCC[C@H]21` [Example 2, (4aR,10bR)-6-(2,6-Dimethoxy-pyridin-3-yl)-9-ethoxy-8-methoxy-1,2,3,4,4a,10b-hexahydro-phenanthridine], the IC50 is 3.24 nM.
